Test results taken from patent publication US20180099931A1 (AbbVie S.à.r.l., priority 2016, published 2018).
Read-outs that look alike come from different tables or passages of the source.

Target: T1, F508delCFTR (Homo sapiens, UniProt P13569, DEL508-508)
T1 construct: expressed in transfected cells; host or cells: CFBE41o- human lung-derived epithelial cells (CFBE4lo-F508delCFTR-HRP), doxycycline-inducible
Assay: Cell Surface Expression-Horse Radish Peroxidase (CSE-HRP) Assay;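 on Maximum % activity (with co-corrector): co-corrector and positive control are both the same reference corrector at 2 µM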;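 on Maximum % activity (without co-corrector): percent of the 2 µM on-plate positive control corrector response above DMSO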
Type: cell-based
Details: for Maximum % activity (with co-corrector): with co-corrector (2 μM); for Maximum % activity (with co-corrector) / Emax: maximum at any tested concentration, normalized to on-plate positive control; for Emax: without co-corrector, read-out: Maximum % activity (without co-corrector)

[1] = test compound without co-corrector, read-out: EC50 (without co-corrector)
[2] = with co-corrector (2 μM of 3-[(2R,4R)-4-({[1-(2,2-difluoro-1,3-benzodioxol-5-yl)cyclopropyl]carbonyl}amino)-7-methoxy-3,4-dihydro-2H-chromen-2-yl]benzoic acid), read-out: EC50 (with co-corrector)

T1 sequence (P13569 with tags, fused parts or gaps DEL508-508): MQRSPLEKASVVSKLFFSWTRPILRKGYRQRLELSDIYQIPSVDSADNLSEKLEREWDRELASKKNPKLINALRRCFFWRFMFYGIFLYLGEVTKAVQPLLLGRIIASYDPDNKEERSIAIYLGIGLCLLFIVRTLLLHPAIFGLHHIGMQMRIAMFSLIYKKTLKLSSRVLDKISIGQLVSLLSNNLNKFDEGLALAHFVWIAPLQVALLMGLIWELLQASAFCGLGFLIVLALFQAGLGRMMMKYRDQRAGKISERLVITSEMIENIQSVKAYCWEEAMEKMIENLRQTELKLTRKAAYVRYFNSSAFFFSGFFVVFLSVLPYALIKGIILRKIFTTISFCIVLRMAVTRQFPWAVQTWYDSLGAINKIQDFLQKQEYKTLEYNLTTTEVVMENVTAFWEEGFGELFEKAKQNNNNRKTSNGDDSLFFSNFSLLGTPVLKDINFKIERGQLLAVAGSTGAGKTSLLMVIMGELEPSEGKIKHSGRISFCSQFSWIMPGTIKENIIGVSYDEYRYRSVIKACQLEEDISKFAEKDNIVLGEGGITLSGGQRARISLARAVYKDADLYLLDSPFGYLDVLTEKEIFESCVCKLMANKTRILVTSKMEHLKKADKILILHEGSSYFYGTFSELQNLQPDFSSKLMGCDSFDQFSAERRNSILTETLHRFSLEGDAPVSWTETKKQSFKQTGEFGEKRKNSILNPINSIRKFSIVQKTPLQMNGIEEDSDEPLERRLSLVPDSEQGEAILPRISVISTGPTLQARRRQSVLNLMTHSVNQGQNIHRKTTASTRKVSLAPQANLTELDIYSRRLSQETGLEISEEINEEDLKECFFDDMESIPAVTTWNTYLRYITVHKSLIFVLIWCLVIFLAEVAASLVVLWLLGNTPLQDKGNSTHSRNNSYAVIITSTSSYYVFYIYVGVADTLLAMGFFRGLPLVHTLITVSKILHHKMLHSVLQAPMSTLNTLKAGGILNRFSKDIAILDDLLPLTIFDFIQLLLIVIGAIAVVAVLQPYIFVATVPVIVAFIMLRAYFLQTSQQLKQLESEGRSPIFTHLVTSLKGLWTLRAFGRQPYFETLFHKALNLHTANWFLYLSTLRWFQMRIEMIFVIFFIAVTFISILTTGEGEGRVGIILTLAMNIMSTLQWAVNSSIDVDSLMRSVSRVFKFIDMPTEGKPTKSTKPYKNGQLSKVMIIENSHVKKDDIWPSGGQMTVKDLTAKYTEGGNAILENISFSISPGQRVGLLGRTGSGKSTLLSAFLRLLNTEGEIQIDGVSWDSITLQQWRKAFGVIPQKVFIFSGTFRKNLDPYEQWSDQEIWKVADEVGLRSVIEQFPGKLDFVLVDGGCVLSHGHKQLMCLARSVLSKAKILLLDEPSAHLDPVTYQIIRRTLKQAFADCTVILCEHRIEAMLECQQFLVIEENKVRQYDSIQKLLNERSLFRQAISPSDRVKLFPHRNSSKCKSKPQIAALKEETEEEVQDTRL

SMILES: COc1ccc(Cl)cc1CN[C@H]1[C@H](C(C)(C)C)[C@@H](C(=O)O)N(C(=O)C2CCCCC2)[C@H]1c1ccccc1OC [Example I-57]
- EC50 [1]: 1 to 10 µM
- EC50 [2]: 1 to 10 µM
- Maximum % activity (with co-corrector): +++ (≥350)
- Emax: 100 to 200%

SMILES: COc1ccc(C(C)(C)C)cc1CN[C@H]1[C@H](C(C)(C)C)[C@@H](C(=O)O)N(C(=O)[C@H]2CCC[C@H](OC)C2)[C@H]1c1ccccc1 [Example I-58]
- EC50 [1]: 1 to 10 µM
- EC50 [2]: 1 to 10 µM
- Maximum % activity (with co-corrector): +++ (≥350)
- Emax: > 200%

SMILES: COc1ccc(C(F)(F)F)cc1CN[C@H]1[C@H](C(C)(C)C)[C@@H](C(=O)O)N(C(=O)[C@@H]2CCC[C@@H](OC)C2)[C@H]1c1ccccc1 [Example I-59]
- EC50 [1]: 1 to 10 µM
- EC50 [2]: 1 to 10 µM
- Maximum % activity (with co-corrector): +++ (≥350)
- Emax: > 200%

SMILES: COc1ccc(C(F)(F)F)cc1CN[C@H]1[C@H](C(C)(C)C)[C@@H](C(=O)O)N(C(=O)[C@H]2CCC[C@H](OC)C2)[C@H]1c1ccccc1 [Example I-60]
- EC50 [1]: 1 to 10 µM
- EC50 [2]: 1 to 10 µM
- Maximum % activity (with co-corrector): +++ (≥350)
- Emax: > 200%

SMILES: COc1ccc(C(C)(C)C)cc1CN[C@H]1[C@H](C(C)(C)OC)[C@@H](C(=O)O)N(C(=O)C2CCCCC2)[C@H]1c1ccccc1 [Example I-61]
- EC50 [1]: 1 to 10 µM
- EC50 [2]: < 1 µM
- Maximum % activity (with co-corrector): +++ (≥350)
- Emax: > 200%

SMILES: COc1cc(C(C)(C)C)ccc1CN[C@H]1[C@H](C(C)(C)OC)[C@@H](C(=O)O)N(C(=O)C2CCCCC2)[C@H]1c1ccccc1 [Example I-62]
- EC50 [1]: 1 to 10 µM
- EC50 [2]: 1 to 10 µM
- Maximum % activity (with co-corrector): +++ (≥350)
- Emax: 100 to 200%

SMILES: COc1ccc(C(F)(F)F)cc1CN[C@H]1[C@H](C(C)(C)OC)[C@@H](C(=O)O)N(C(=O)C2CCCCC2)[C@H]1c1ccccc1 [Example I-63]
- EC50 [1]: 1 to 10 µM
- EC50 [2]: < 1 µM
- Maximum % activity (with co-corrector): +++ (≥350)
- Emax: > 200%

SMILES: COc1ccc(C(C)(C)C)cc1CN[C@H]1[C@H](C(C)(C)C)[C@@H](C(=O)O)N(C(=O)c2cccnc2)[C@H]1c1ccccc1 [Example I-64]
- EC50 [1]: 1 to 10 µM
- EC50 [2]: 1 to 10 µM
- Maximum % activity (with co-corrector): +++ (≥350)
- Emax: < 100%

SMILES: COc1ccc(C(C)(C)C)cc1CN[C@H]1[C@H](C(C)(C)C)[C@@H](C(=O)O)N(C(=O)c2ccccc2)[C@H]1c1ccccc1 [Example I-65]
- EC50 [1]: 1 to 10 µM
- EC50 [2]: 1 to 10 µM
- Maximum % activity (with co-corrector): +++ (≥350)
- Emax: 100 to 200%

SMILES: COc1ccc(C(C)(C)C)cc1CN[C@H]1[C@H](C(C)(C)C)[C@@H](C(=O)O)N(C(=O)C2CCCS(=O)(=O)C2)[C@H]1c1ccccc1 (some centres unmarked) [Example I-66]
- EC50 [1]: 1 to 10 µM
- EC50 [2]: 1 to 10 µM
- Maximum % activity (with co-corrector): +++ (≥350)
- Emax: > 200%

SMILES: CC(C)(C)[C@H]1[C@H](Nc2cc(C(F)(F)F)cc(C3CCC3)n2)[C@H](c2ccccc2)N(C(=O)C2CCCCC2)[C@@H]1C(=O)O [Example I-67]
- EC50 [1]: 1 to 10 µM
- EC50 [2]: 1 to 10 µM
- Maximum % activity (with co-corrector): +++ (≥350)
- Emax: < 100%

SMILES: COc1ccc(C2CCC2)cc1CN[C@H]1[C@H](C(C)(C)C)[C@@H](C(=O)O)N(C(=O)C2CCCCC2)[C@H]1c1ccccc1 [Example I-68]
- EC50 [1]: < 1 µM
- EC50 [2]: < 1 µM
- Maximum % activity (with co-corrector): +++ (≥350)
- Emax: > 200%

SMILES: COc1ncc(Cc2ccccc2)cc1CN[C@H]1[C@H](C(C)(C)C)[C@@H](C(=O)O)N(C(=O)C2CCCCC2)[C@H]1c1ccccc1 [Example I-69]
- EC50 [1]: < 1 µM
- EC50 [2]: < 1 µM
- Maximum % activity (with co-corrector): +++ (≥350)
- Emax: 100 to 200%

SMILES: CCC(C)c1cnc(OC)c(CN[C@H]2[C@H](C(C)(C)C)[C@@H](C(=O)O)N(C(=O)C3CCCCC3)[C@H]2c2ccccc2)c1 (some centres unmarked) [Example I-70]
- EC50 [1]: 1 to 10 µM
- EC50 [2]: < 1 µM
- Maximum % activity (with co-corrector): +++ (≥350)
- Emax: > 200%

SMILES: COc1ncc(CC2CCCCC2)cc1CN[C@H]1[C@H](C(C)(C)C)[C@@H](C(=O)O)N(C(=O)C2CCCCC2)[C@H]1c1ccccc1 [Example I-71]
- EC50 [1]: < 1 µM
- EC50 [2]: < 1 µM
- Maximum % activity (with co-corrector): +++ (≥350)
- Emax: 100 to 200%

SMILES: COc1ncc(C2CCCCC2)cc1CN[C@H]1[C@H](C(C)(C)C)[C@@H](C(=O)O)N(C(=O)C2CCCCC2)[C@H]1c1ccccc1 [Example I-72]
- EC50 [1]: < 1 µM
- EC50 [2]: < 1 µM
- Maximum % activity (with co-corrector): +++ (≥350)
- Emax: > 200%

SMILES: COc1ncc(C2CCCC2)cc1CN[C@H]1[C@H](C(C)(C)C)[C@@H](C(=O)O)N(C(=O)C2CCCCC2)[C@H]1c1ccccc1 [Example I-73]
- EC50 [1]: < 1 µM
- EC50 [2]: < 1 µM
- Maximum % activity (with co-corrector): +++ (≥350)
- Emax: > 200%

SMILES: CCC(CC)Cc1cnc(OC)c(CN[C@H]2[C@H](C(C)(C)C)[C@@H](C(=O)O)N(C(=O)C3CCCCC3)[C@H]2c2ccccc2)c1 [Example I-74]
- EC50 [1]: < 1 µM
- EC50 [2]: < 1 µM
- Maximum % activity (with co-corrector): +++ (≥350)
- Emax: > 200%

SMILES: COc1ncc(C(C)c2ccccc2)cc1CN[C@H]1[C@H](C(C)(C)C)[C@@H](C(=O)O)N(C(=O)C2CCCCC2)[C@H]1c1ccccc1 (some centres unmarked) [Example I-75]
- EC50 [1]: < 1 µM
- EC50 [2]: < 1 µM
- Maximum % activity (with co-corrector): +++ (≥350)
- Emax: 100 to 200%

SMILES: COc1ncc(CC(C)C)cc1CN[C@H]1[C@H](C(C)(C)C)[C@@H](C(=O)O)N(C(=O)C2CCCCC2)[C@H]1c1ccccc1 [Example I-76]
- EC50 [1]: 1 to 10 µM
- EC50 [2]: < 1 µM
- Maximum % activity (with co-corrector): +++ (≥350)
- Emax: > 200%

SMILES: COc1ncc(Cc2cccc(C#N)c2)cc1CN[C@H]1[C@H](C(C)(C)C)[C@@H](C(=O)O)N(C(=O)C2CCCCC2)[C@H]1c1ccccc1 [Example I-77]
- EC50 [1]: 1 to 10 µM
- EC50 [2]: 1 to 10 µM
- Maximum % activity (with co-corrector): +++ (≥350)
- Emax: 100 to 200%

SMILES: COc1ccc(-c2ccccc2)cc1CN[C@H]1[C@H](C(C)(C)C)[C@@H](C(=O)O)N(C(=O)[C@@H]2CCC[C@@H](OC)C2)[C@H]1c1ccccc1 [Example I-78]
- EC50 [1]: 1 to 10 µM
- EC50 [2]: < 1 µM
- Maximum % activity (with co-corrector): +++ (≥350)
- Emax: > 200%

SMILES: COc1ncc(C(F)(F)F)cc1CN[C@H]1[C@H](C(C)(C)C)[C@@H](C(=O)O)N(C(=O)[C@@H]2CCC[C@@H](OC)C2)[C@H]1c1ccccc1 [Example I-79]
- EC50 [1]: 1 to 10 µM
- EC50 [2]: 1 to 10 µM
- Maximum % activity (with co-corrector): +++ (≥350)
- Emax: > 200%

SMILES: CC(C)(C)c1ccc(O)c(CN[C@H]2[C@H](C(C)(C)C)[C@@H](C(=O)O)N(C(=O)C3CCCCC3)[C@H]2c2ccccc2)c1 [Example I-80]
- EC50 [1]: > 10 µM
- EC50 [2]: > 10 µM
- Maximum % activity (with co-corrector): + (<150)
- Emax: < 100%

SMILES: COc1ccc(C(C)(C)C)cc1CN[C@H]1[C@H](C(C)(C)C)[C@@H](C(=O)O)N(C(=O)OC(C)C)[C@H]1c1ccccc1 [Example I-81]
- EC50 [1]: 1 to 10 µM
- EC50 [2]: 1 to 10 µM
- Maximum % activity (with co-corrector): +++ (≥350)
- Emax: > 200%

SMILES: COc1ccc(C(C)(C)C)cc1N[C@H]1[C@H](C(C)(C)C)[C@@H](C(=O)O)N(C(=O)C2CCCCC2)[C@H]1c1ccccc1 [Example I-82]
- EC50 [1]: 1 to 10 µM
- EC50 [2]: 1 to 10 µM
- Maximum % activity (with co-corrector): +++ (≥350)
- Emax: < 100%

SMILES: COc1ccc(C(F)(F)F)cc1CN[C@H]1[C@H](C(C)(C)C)[C@@H](C(=O)O)N(C(=O)CC2CCCCO2)[C@H]1c1ccccc1 (some centres unmarked) [Example I-84]
- EC50 [1]: 1 to 10 µM
- EC50 [2]: 1 to 10 µM
- Maximum % activity (with co-corrector): +++ (≥350)
- Emax: 100 to 200%

SMILES: COc1ccc(CN(C)C)cc1CN[C@H]1[C@H](C(C)(C)C)[C@@H](C(=O)O)N(C(=O)C2CCCCC2)[C@H]1c1ccccc1 [Example I-85]
- EC50 [1]: > 10 µM
- EC50 [2]: > 10 µM
- Maximum % activity (with co-corrector): + (<150)
- Emax: < 100%

SMILES: COc1ccc(S(F)(F)(F)(F)F)cc1CN[C@H]1[C@H](C(C)(C)C)[C@@H](C(=O)O)N(C(=O)C2CCCCC2)[C@H]1c1ccccc1 [Example I-86]
- EC50 [1]: < 1 µM
- EC50 [2]: < 1 µM
- Maximum % activity (with co-corrector): +++ (≥350)
- Emax: 100 to 200%

SMILES: COc1ccc(-c2ccccc2)cc1CN[C@H]1[C@H](C(C)(C)OC)[C@@H](C(=O)O)N(C(=O)C2CCCCC2)[C@H]1c1ccccc1 [Example I-87]
- EC50 [1]: < 1 µM
- EC50 [2]: < 1 µM
- Maximum % activity (with co-corrector): +++ (≥350)
- Emax: > 200%

SMILES: COc1ccc(C(C)(C)C#N)cc1CN[C@H]1[C@H](C(C)(C)C)[C@@H](C(=O)O)N(C(=O)C2CCCCC2)[C@H]1c1ccccc1 [Example I-88]
- EC50 [1]: 1 to 10 µM
- EC50 [2]: 1 to 10 µM
- Maximum % activity (with co-corrector): +++ (≥350)
- Emax: 100 to 200%

SMILES: COc1cc(C(C)(C)O)ccc1CN[C@H]1[C@H](C(C)(C)C)[C@@H](C(=O)O)N(C(=O)C2CCCCC2)[C@H]1c1ccccc1 [Example I-89]
- EC50 [1]: > 10 µM
- EC50 [2]: > 10 µM
- Maximum % activity (with co-corrector): + (<150)
- Emax: < 100%

SMILES: COc1ccc(C(C)(C)C)cc1CN[C@H]1[C@H](C(C)(C)C)[C@@H](C(=O)O)N(C(=O)c2cc(C#N)ccc2OC)[C@H]1c1ccccc1 [Example I-90]
- EC50 [1]: 1 to 10 µM
- EC50 [2]: 1 to 10 µM
- Maximum % activity (with co-corrector): +++ (≥350)
- Emax: 100 to 200%

SMILES: COc1ccc(C(C)(C)C)cc1CN[C@H]1[C@H](C(C)(C)C)[C@@H](C(=O)O)N(C(=O)CN2Cc3ccccc3C2)[C@H]1c1ccccc1 [Example I-91]
- EC50 [1]: 1 to 10 µM
- EC50 [2]: 1 to 10 µM
- Maximum % activity (with co-corrector): +++ (≥350)
- Emax: > 200%

SMILES: COc1ccc(C(C)(C)C)cc1CN[C@H]1[C@H](C(C)(C)C)[C@@H](C(=O)O)N(C(=O)Cc2ccsc2)[C@H]1c1ccccc1 [Example I-92]
- EC50 [1]: 1 to 10 µM
- EC50 [2]: 1 to 10 µM
- Maximum % activity (with co-corrector): +++ (≥350)
- Emax: > 200%
